Assay results reported in patent US11339178B2, “Inhibitors of microbial beta-glucuronidase enzymes and uses thereof” (The University of North Carolina at Chapel Hill, priority 2016, dated 2022).

What was measured:
[1] = molecular target: C. perfringens (CpGUS) β-Glucuronidase (Clostridium perfringens, UniProt Q8XP19); assay: biochemical
[2] = molecular target: S. agalactiae (SaGUS) β-Glucuronidase (Streptococcus agalactiae serotype V, UniProt Q8E0N2); assay: biochemical
[3] = molecular target: E. coli (EcGUS) β-Glucuronidase (Escherichia coli, UniProt P05804); assay: In vitro GUS inhibition, PNPG cleavage by purified E. coli GUS; type: biochemical; conditions: PNPG substrate, 37° C., 2 hours; NI = no inhibition
Experimental: To assess GUS inhibition, cleavage of p-nitrophenyl-β-D-glucuronide (PNPG) by purified E. coli GUS in the presence of inhibitor was measured. The reaction was performed in 96-well clear-bottom plates at a volume of 50 μL. Each reaction contained 5 μL of 100 nM E. coli GUS, 5 μL of inhibitor at various concentrations, 10 μL of 250 mM HEPES and 250 mM NaCl assay buffer, and 30 μL of 1.5 mM PNPG. The reaction was initiated by addition of PNPG and incubated at 37° C. for 2 hours. End point absorbance values at 410 nm were measured using a PHERAstar Plus microplate reader. The resulting data were fit with a four-parameter logistic log function in SigmaPlot 13.0 to determine IC50 values. IC50 was defined as the concentration of inhibitor that yields a 50% reduction in product formation at equilibrium.

Chain of S. agalactiae (SaGUS) β-Glucuronidase (Q8E0N2 whole entry): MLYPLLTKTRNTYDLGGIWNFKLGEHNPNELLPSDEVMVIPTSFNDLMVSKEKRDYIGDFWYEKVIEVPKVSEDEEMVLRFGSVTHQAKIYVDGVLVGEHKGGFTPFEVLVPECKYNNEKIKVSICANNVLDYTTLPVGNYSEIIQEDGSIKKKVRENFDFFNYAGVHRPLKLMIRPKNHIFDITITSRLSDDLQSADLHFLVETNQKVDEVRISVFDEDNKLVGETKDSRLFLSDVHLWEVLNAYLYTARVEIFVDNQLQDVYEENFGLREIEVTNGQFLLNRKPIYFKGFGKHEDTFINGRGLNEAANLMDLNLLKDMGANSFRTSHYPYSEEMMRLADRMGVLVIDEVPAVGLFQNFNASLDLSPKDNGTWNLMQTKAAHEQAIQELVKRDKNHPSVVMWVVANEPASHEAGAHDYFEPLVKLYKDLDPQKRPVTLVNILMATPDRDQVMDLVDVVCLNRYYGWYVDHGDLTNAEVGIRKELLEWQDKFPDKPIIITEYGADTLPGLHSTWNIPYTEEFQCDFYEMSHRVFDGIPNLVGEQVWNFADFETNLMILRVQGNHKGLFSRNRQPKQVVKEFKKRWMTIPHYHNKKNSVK
Chain of C. perfringens (CpGUS) β-Glucuronidase (Q8XP19 whole entry, looked up): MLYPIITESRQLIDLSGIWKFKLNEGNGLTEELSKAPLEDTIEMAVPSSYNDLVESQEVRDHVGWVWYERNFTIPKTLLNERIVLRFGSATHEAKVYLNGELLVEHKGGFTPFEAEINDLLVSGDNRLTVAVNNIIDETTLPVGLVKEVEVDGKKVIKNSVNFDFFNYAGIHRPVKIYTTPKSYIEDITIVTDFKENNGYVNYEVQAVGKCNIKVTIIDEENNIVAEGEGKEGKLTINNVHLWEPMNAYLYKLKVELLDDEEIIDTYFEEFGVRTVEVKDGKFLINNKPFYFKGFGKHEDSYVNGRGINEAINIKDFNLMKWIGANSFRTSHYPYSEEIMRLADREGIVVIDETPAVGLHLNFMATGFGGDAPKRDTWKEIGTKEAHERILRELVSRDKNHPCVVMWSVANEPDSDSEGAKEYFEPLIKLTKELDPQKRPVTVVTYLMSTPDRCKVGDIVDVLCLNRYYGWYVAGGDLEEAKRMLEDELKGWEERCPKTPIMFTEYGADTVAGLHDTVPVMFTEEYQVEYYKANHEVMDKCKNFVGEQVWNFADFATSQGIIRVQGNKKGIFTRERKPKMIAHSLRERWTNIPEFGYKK
Chain of E. coli (EcGUS) β-Glucuronidase (P05804 whole entry): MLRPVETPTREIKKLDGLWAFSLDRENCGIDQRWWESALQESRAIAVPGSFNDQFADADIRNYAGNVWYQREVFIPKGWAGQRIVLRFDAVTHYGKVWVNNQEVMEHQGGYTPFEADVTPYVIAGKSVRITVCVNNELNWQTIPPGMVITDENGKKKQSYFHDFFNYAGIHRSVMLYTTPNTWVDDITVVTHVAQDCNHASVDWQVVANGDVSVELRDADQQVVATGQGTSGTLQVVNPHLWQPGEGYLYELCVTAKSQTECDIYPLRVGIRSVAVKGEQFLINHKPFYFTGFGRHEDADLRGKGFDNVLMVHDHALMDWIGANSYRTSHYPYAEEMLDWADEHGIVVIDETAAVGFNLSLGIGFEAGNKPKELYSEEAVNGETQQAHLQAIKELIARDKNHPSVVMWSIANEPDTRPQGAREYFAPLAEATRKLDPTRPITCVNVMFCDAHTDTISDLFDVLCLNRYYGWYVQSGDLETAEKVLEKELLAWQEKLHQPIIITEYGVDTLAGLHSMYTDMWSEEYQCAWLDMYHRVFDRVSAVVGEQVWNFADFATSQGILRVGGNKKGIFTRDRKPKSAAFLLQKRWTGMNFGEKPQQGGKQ

Compound | IC50 [1] | IC50 [2] | IC50 [3]
CN1CCN(c2nnnc3c2sc2nc(N4CCOCC4)c4c(c23)CCCC4)CC1 [Compound 2] | 14300 ± 300 nM | 22000 ± 7000 nM | 
NN1CCN(c2nnnc3c2sc2nc(N4CCOCC4)c4c(c23)CCCC4)CC1 [Compound 3] | 4500 ± 200 nM | 6700 ± 400 nM | 5000 ± 500 nM
C1CCc2c(c(N3CCOCC3)nc3sc4c(NC5CCNCC5)nnnc4c23)C1 [Compound 4] | 5700 ± 600 nM | 70000 ± 20000 nM | 
C1CCc2c(c(N3CCOCC3)nc3sc4c(N5CC6CC5CN6)nnnc4c23)C1 (stereo not drawn) [Compound 5] | 4500 ± 300 nM | 2700 ± 500 nM | 
C[C@@H]1CN(c2nnnc3c2sc2nc(N4CCOCC4)c4c(c23)CCCC4)CCN1 [Compound 6] | 3900 ± 100 nM | 550 ± 70 nM | 
C[C@H]1CN(c2nnnc3c2sc2nc(N4CCOCC4)c4c(c23)CCCC4)CCN1 [Compound 7] | 4200 ± 300 nM | 550 ± 60 nM | 
C1CCc2c(c(N3CCOCC3)nc3sc4c(N5CCCNCC5)nnnc4c23)C1 [Compound 8] | 13700 ± 600 nM | 5000 ± 1000 nM | 
C1CCc2c(c(N3CCNCC3)nc3sc4c(N5CCNCC5)nnnc4c23)C1 [Compound 12] | 120 ± 20 nM | 63 ± 6 nM | 
C1CCN(c2nc3sc4c(N5CCNCC5)nnnc4c3c3c2CCCC3)CC1 [Compound 13] | 350 ± 20 nM | 180 ± 20 nM | 
C1CCC(Nc2nc3sc4c(N5CCNCC5)nnnc4c3c3c2CCCC3)CC1 [Compound 14] | 480 ± 10 nM | 320 ± 50 nM | 
CN(C)c1nc2sc3c(N4CCNCC4)nnnc3c2c2c1CCCC2 [Compound 15] | 180 ± 6 nM | 62 ± 5 nM | 
CNc1nc2sc3c(N4CCNCC4)nnnc3c2c2c1CCCC2 [Compound 16] | 180 ± 10 nM | 39 ± 8 nM | 70 ± 10 nM
c1ccc(CNc2nc3sc4c(N5CCNCC5)nnnc4c3c3c2CCCC3)cc1 [Compound 17] | 290 ± 10 nM | 90 ± 20 nM | 
c1cc2c(nc1N1CCOCC1)sc1c(N3CCNCC3)nnnc12 [Compound 19] | 220 ± 20 nM | 640 ± 60 nM | 
c1nc(N2CCNCC2)c2sc3nc(N4CCOCC4)ccc3c2n1 [Compound 20] | 53 ± 4 nM | 690 ± 30 nM | 130 ± 10 nM
CNc1nc(N2CCNCC2)c2sc3nc(N4CCOCC4)ccc3c2n1 [Compound 21] | 100 ± 10 nM | 340 ± 50 nM | 
c1ccc(-c2ccc3c(n2)sc2c(N4CCNCC4)nnnc23)cc1 [Compound 22] | 230 ± 30 nM | 700 ± 100 nM | 
c1ccc(-c2ccc3c(n2)sc2c(N4CCNCC4)ncnc23)cc1 [Compound 23] | 440 ± 40 nM | 550 ± 70 nM | 

Compound | IC50 [1] | IC50 [2] | IC50 [3]
CNc1nc(N2CCNCC2)c2sc3nc(-c4ccccc4)ccc3c2n1 [Compound 24] | 450 ± 10 nM | 480 ± 30 nM | 
CN(C)c1nc(N2CCNCC2)c2sc3nc(-c4ccccc4)ccc3c2n1 [Compound 25] | 160 ± 20 nM | 270 ± 30 nM | 
OCCNc1nc(N2CCNCC2)c2sc3nc(-c4ccccc4)ccc3c2n1 [Compound 26] | 410 ± 40 nM | 490 ± 60 nM | 
CN(C)c1ccc2c(n1)sc1c(N3CCNCC3)nnnc12 [Compound 27] | 220 ± 20 nM | 1000 ± 200 nM | 
CNc1nc(N2CCNCC2)c2sc3nc(N(C)C)ccc3c2n1 [Compound 28] | 280 ± 50 nM | 500 ± 200 nM | 
CNc1ccc2c(n1)sc1c(N3CCNCC3)nc(NC)nc12 [Compound 29] | 660 ± 90 nM | 550 ± 70 nM | 
c1cnc2sc3c(N4CCNCC4)ncnc3c2c1 [Compound 30] | 577 ± 9 nM | 3000 ± 2000 nM | 
CNc1nc(N2CCNCC2)c2sc3ncccc3c2n1 [Compound 31] | 900 ± 300 nM | 2000 ± 1500 nM | 
CC1CN(c2nnnc3c2sc2nc(N4CCOCC4)c4c(c23)CCCC4)CCN1 (stereo not drawn) [Compound 44] |  |  | 5400 ± 600 nM
COc1nc(N2CCNCC2)c2sc3nc(-c4ccccc4)ccc3c2n1 [Compound 45] |  |  | 140 ± 8 nM
c1cnc2sc3c(N4CCNCC4)nnnc3c2c1 [Compound 46] |  |  | 1400 ± 40 nM
Clc1nc(N2CCNCC2)c2sc3nc(N4CCOCC4)ccc3c2n1 [Compound 47] |  |  | 30 ± 3 nM
Fc1ccc(CNc2nc3sc4c(N5CCNCC5)nnnc4c3c3c2CCCC3)cc1 [Compound 48] |  |  | 208 ± 3 nM
CC1(C)CCc2c(N3CCOCC3)nc3sc4c(N5CCNCC5)nnnc4c3c2C1 [Compound 49] |  |  | 620 ± 50 nM
CN(C)c1nc2sc3c(NCCN)nnnc3c2c2c1CCCC2 [Compound 50] |  |  | 12000 ± 2000 nM
Clc1nc(N2CCNCC2)c2sc3nc(N4CCOCC4)c4c(c3c2n1)CCCC4 [Compound 51] |  |  | 900 ± 60 nM
C[N+]1(C)CCN(c2nnnc3c2sc2nc(N4CCOCC4)c4c(c23)CCCC4)CC1 [Compound 52] |  |  | 6000 ± 100 nM
C1CCc2c(c(N3CCOCC3)nc3sc4c(N5CCNCC5)nnnc4c23)C1 [Inh9, reference compound] | 154 nM | 117 nM | 
